# Where two headings read alike, the source gives them in different places. Bridge positions count the residues as written; N and C are the ends. Square brackets hold non-standard residues; d marks the D form. Peptide text beside a SMILES is read from it. * marks the point of attachment. Ileψ(thiazoline)Cys = CC[C@H](C)[C@H](N)C1=N[C@H](C(=O)*)CS1; αMeP = C[C@@]1(C(=O)O)CCCN1; dOrn = NCCC[C@@H](N)C(=O)O
# Experiments:
# Caco-2 cells [1] = experiment: Cytotoxicity: sulforhodamine B (SRB) growth inhibition of Caco-2 cells; conditions: read-out: IC50 of G-2MePE, growth of Caco-2 cells
# Protocol: (§1) The purpose of this study growth was to determine if GPE and/or G-2MePE can inhibit growth of cells.
# (§2) The cells were fixed by TCA and SRB was added to each well. Cell-bound dye was extracted with Tris base buffer to solubilize the dye and the absorbance determined by a plate reader at 570 nm. Inhibition of growth was expressed as relative viability (% control) and the IC50 was calculated from the concentration-response curves after log/probit transformation.
# Caco-2 cells [2] = type: in vitro ADME, human; conditions: Caco-2, pH 7.4
# Protocol: Fresh medium was replaced every 2-3 days. Cells were cultured at 37° C. for 12-14 days for uptake assay study. The uptake assay study was commenced after cells reached confluency, i.e., after 12-14 days in culture. Each dish was washed with HEPES (pH 7.4). […] The cells were scraped off with a cell scraper into an extraction solution and centrifuged at 20,000 g for 20 min. […] The pellet was diluted by NaOH to determine the protein content by Lowry assay.
# Caco-2 cells [3] = type: in vitro ADME, human
# Protocol: The purpose of these studies was to determine the effect of pH on the degradation of G-2MePE by Caco-2 cells.
# 100 μg/ml G-2MePE was added to the apical side of confluent cultures of Caco-2 cells in different pH conditions. Samples were taken at 0, 15, 30, 45, 60, 90, 120, 150, 180, 210, 240 min later. Samples were centrifuged at 20,000 g for 15 min and 50 μl supernatant was injected to the column of HPLC. […] Peptidolytic activity and half-life of G-2MePE were then determined in different pH condition.
# Caco-2 cells [4] = tested on: Caco-2 cells
# Protocol: as §1, §2
# in vitro = conditions: human, Caco-2
# Protocol: as §1, §2
# Caco-2 cell monolayer = experiment: Stability of GPE and G-2MePE in the presence of Caco-2 cells; type: in vitro ADME, human; conditions: 50-100 μg/ml, HBSS pH 7.4, HPLC
# Protocol: The collected samples were extracted by adding 400 μl of 0.04M sulphuric acid into test tubes, each of which contained 50 μl of a sample. The test tubes were left on ice for 5 min and vortexed. The 50 μl of 10% sodium tungstate was added to each tube and the tubes were vortexed immediately and left on ice for 10 min, vortexed again and left on ice for another 10 min. The cells were centrifuged at 20,000 g at 4° C. for 20 min. The supernatant was collected for testing. […] The protein content of samples was measured by Lowry assay.
# [5] = tested on: Caco-2 epithelial membrane; experiment: Permeability of G-2MePE and TEER across Caco-2 cells with permeation enhancers; type: in vitro ADME, human
# Protocol: The purpose of this study was to determine if permeability enhancers can increase transport of G-2MePE across Caco-2 cell layers.
# G-2MePE was added in three or six replicates to the donor sides of Transwells containing Caco-2 cells in the absence or presence of various permeation enhancers (FIG. 4), 1.5 ml transport buffer was added to the receptor side. The Transwells were then left to incubate. […] After each sample was taken, 0.4 ml of fresh HBSS buffer was added to the side of the Transwell from which sample was taken. Subsequently, 0.1 ml donor solution was collected to measure the concentration of the intact G-2MePE. Following each sampling, 0.1 ml of G-2MePE at the same concentration was replaced.
# Peptidolysis was terminated by adding the same volume of HCl (0.2M) to each sample. […] Supernatants were collected, dried by Speed Vacuum, diluted with mobile phase and analysed by spectrofluorophotometer. […] Transepthelial electric resistance (TEER) was measured using a Millipore voltage meter at different time points.
# [6] = tested on: Caco-2 epithelial cell layer; experiment: Permeability of fluorescein and TEER across Caco-2 cells with permeation enhancers; type: in vitro ADME, human
# Protocol: The purpose of this study was to determine the appearance permeation coefficient (Papp) and transepithelial electrical resistance (TEER) across confluent cultures of Caco-2 epithelial cells caused by a typical hydrophilic material.
# Integrity of Caco-2 cell cultures was assessed by measuring the TEER and the leakage of ^14C-mannitol or fluorescein across confluent cultures. Inserts with confluent cell cultures and an electrical resistance of greater than 300 Ω/cm^2, were considered appropriate for these studies. Fluorescein or 0.5 μCi/50 μl of ^14C-mannitol was added to the apical cell and incubated for 1-4 hours. The acceptable leakage was considered to be <0.5-1%. 6 inserts with good integrity were chosen and then washed with transport buffer. The medium from all apical and basolateral wells was removed. The cell cultures were washed twice with warm 37° C. transport buffer.
# The solution on the transwell receptor side was then replaced with 0.4 ml of fresh HBSS, and we collected 0.1 ml from the donor side (then replaced with 0.1 ml sodium fluorescein at the same concentration). The reaction was terminated from donor side by adding the same volume HCl (0.2M) or by 3:1 Acetonitril/methonal with 2% acetic acid to each sample. […] Supernatants were collected, dried by Speed Vacuum, diluted with mobile phase and the resulting sample was analysed by spectrofluorophotometer. The apparent permeability coefficient was used to compare the permeability between control and treatment groups (FIG. 4). Transepithelial electric resistance (TEER) was measured using a Millipore voltage meter at different time points.
structure (smiles),measurement,setting,value
"C[C@@]1(C(=O)N[C@@H](CCC(=O)O)C(=O)O)CCCN1C(=O)CN [Formulation G-2MePE, Glycyl-2-Methylprolyl Glutamate] (H-Gly-[αMeP]-Glu-OH)",IC50,Caco-2 cells [1]; 24 hours,4.64 mM
same,IC50,Caco-2 cells [1]; 48 hours,3.66 mM
same,IC50,Caco-2 cells [1]; 72 hours,2.24 mM
same,IC50,Caco-2 cells [1]; 96 hours,1.09 mM
same,IC50,Caco-2 cells [1]; 120 hours,1.01 mM
same,uptake of G-2MePE by Caco-2 cells,Caco-2 cells [2],1.3%
same,pH at which G-2MePE is stable,Caco-2 cells [3]; Caco-2,≤ 5.5
same,degradation in basic conditions,"Caco-2 cells [3]; Caco-2, pH 7",Moderate degradation
"NCC(=O)N1CCC[C@H]1C(=O)N[C@@H](CCC(=O)O)C(=O)O [GPE, glycyl-prolyl-glutarnate]",IC50,Caco-2 cells [4],≥ 15 mM
same,inhibition at 15 mM,in vitro,35%
same,metabolites identified in the presence of Caco-2 cells,Caco-2 cell monolayer,Four
CCCCCCCCCC(=O)[O-].[Na+] [Sodium caprate],permeability of the Caco-2 epithelial membrane to G-2MePE,"[5]; EDTA 30 mM, sodium caprate 20 mM, taurocholate 20 and 30 mM, citric acid 30 mM, bacitracin 3.5 mM",significantly increased
same,TEER of Caco-2 cell layer,"[5]; G-2MePE transport, EDTA 30 mM, sodium caprate 20 mM, taurocholate 20 & 30 mM, citric acid 30 mM",significantly reduced
same,relative effect on fluorescein permeability,[6]; 20 mM caprate vs 20 mM taurocholate,greater than the effect of the same concentration of taurocholate
same,TEER of Caco-2 cell layer,"[6]; fluorescein transport experiment, 3 h, sodium caprate 10 or 20 mM, taurocholate 30 mM, EDTA 40 mM, SDA 1 mM",reduced the TEER
same,permeability of the Caco-2 epithelial cell layer to fluorescein,"[6]; sodium caprate 10 or 20 mM, taurocholate 30 mM, EDTA 40 mM, SDA 1 mM, 3 h",significantly (P<0.05) increased
CC[C@H](C)[C@H](N)C1=N[C@H](C(=O)N[C@@H](CC(C)C)C(=O)N[C@H](CCC(=O)O)C(=O)N[C@H](C(=O)N[C@H]2CCCCNC(=O)[C@H](CC(N)=O)NC(=O)[C@@H](CC(=O)O)NC(=O)[C@H](Cc3cnc[nH]3)NC(=O)[C@@H](Cc3ccccc3)NC(=O)[C@H]([C@@H](C)CC)NC(=O)[C@@H](CCCN)NC2=O)[C@@H](C)CC)CS1 [bacitracin] ({Ileψ(thiazoline)Cys}-L[dE]IK[dOrn]I[dF]H[dD]N; lactam 4-C),permeability of the Caco-2 epithelial membrane to G-2MePE,[5]; Caco-2,significantly increased

# — patent US8496963B2, “Oral formulations of glycyl-2-methylprolyl-glutamate” (priority 2007, dated 2013)
